One assay concerns AE-17. Nature of the assay: MTT viability assay (IC50). Type of assay: cell-based, mouse. The note with it: AE-17, ~60% confluency. The text has this:
The following cell lines used in this study were obtained from ATCC, unless specified otherwise: Human T lymphoma cells Jurkat, human mesothelioma cells Meso-I, MM-BI, Ist-Mes, Ist-Mes-2 (Pass, H. I. et al. Characteristics of nine newly derived mesothelioma cell lines. Ann. Thorac. Surg. 59, 835-844 (1995)), human breast cancer cells MCF-7 (erbB2-low) and MDA-MB-453 (erbB2-high), human colorectal cells HCT-116, human hepatocarcinoma cells Huh-7, mouse mesothelioma cells AE17 (Jackaman, C. et al. IL-2 intratumoral immunotherapy enhances CD8+ T cells that mediate destruction of tumor cells and tumor-associated vasculature: a novel mechanism for IL-2. J. Immunol. […]
(§1) Toxicity of α-TOS, VE11S (“VES”), MitoVE3S, MitoVE5S, MitoVE7S, MitoVE9S, MitoVE11S (“MitoVES”), MitoVE11AE (“MitoVEAE”), MitoVE11F (“MitoVEF”), MitoVE11M (“MitoVEM”), and VES4TPP towards cancer cells was assessed on the basis of IC50, as detailed in Turanek, J., et al. ((2008). Liposomal formulation of vitamin E analogs as an efficient and selective anti-cancer treatment. Clin. Cancer Res. (submitted)). […]
For orientation: Tetrazolium dyes change colour on reduction, which living cells bring about.

In another assay the test system is H9c2. Kind of assay: MTT viability assay (IC50). The class given is cell-based, rat. The note with it: H9c2, ~60% confluency.
Source text: (§2) The following cell lines used in this study were obtained from ATCC, unless specified otherwise: Human T lymphoma cells Jurkat, human mesothelioma cells Meso-I, MM-BI, Ist-Mes, Ist-Mes-2 (Pass, H. I. et al. Characteristics of nine newly derived mesothelioma cell lines. Ann. Thorac. Surg. 59, 835-844 (1995)), human breast cancer cells MCF-7 (erbB2-low) and MDA-MB-453 (erbB2-high), human colorectal cells HCT-116, human hepatocarcinoma cells Huh-7, mouse mesothelioma cells AE17 (Jackaman, C. et al. IL-2 intratumoral immunotherapy enhances CD8+ T cells that mediate destruction of tumor cells and tumor-associated vasculature: a novel mechanism for IL-2. J. Immunol. 171, […] (2003), human non-malignant mesothelial cells Met-5A, […] (Claycomb, W. C. et al. HL-1 cells: a cardiac muscle cell line that contracts and retains phenotypic characteristics of the adult cardiomyocyte. Proc. Natl. Acad. Sci. USA 95, 2979-2984 […]) and H9c2, and the human endothelial-like cells EAhy926 (Edgell, C. J., McDonald, C. C. & Graham, J. B. Permanent cell line expressing human factor VIII-related antigen established by hybridization. Proc. Natl. Acad. Sci. USA 80, 3734-3737 (1983)). Jurkat cells were grown in the RPMI medium while DMEM was used for other malignant cell lines and for Met-5A cells, supplemented with 10% FCS and antibiotics. HL-1 cells, maintained in fibronectin/gelatine-coated dishes, were grown in the Claycomb medium supplemented with noradrenalin (Claycomb, W. C. et al. HL-1 cells: a cardiac muscle cell line that contracts and retains phenotypic characteristics of the adult cardiomyocyte. Proc. Natl. Acad. Sci. USA 95, 2979-2984 […]), EAhy926 cells were grown in complete DMEM supplemented with HAT (Edgell, C. J., McDonald, C. C. & Graham, J. B. Permanent cell line expressing human factor VIII-related antigen established by hybridization. Proc. Natl. Acad. Sci. USA 80, 3734-3737 (1983)). Cells deficient in mtDNA (ρ^0 phenotype) were prepared as detailed in Weber, T. et al., (Mitochondria play a central role in apoptosis induced by α-tocopheryl succinate, an agent with anticancer activity. Comparison with receptor-mediated pro-apoptotic signaling. Biochemistry 42, 4277-4291 (2003)). Acquisition of the ρ^0 phenotype was confirmed by lack of expression by the cells of the mtDNA-encoded cytochrome c oxidase subunit II (COXII not shown). Chinese hamster lung fibroblasts deficient in complex I (B10 cells) (See, B. B. et al. Molecular remedy of complex I defects: rotenone-insensitive internal NADH-quinone oxidoreductase of Saccharomyces cerevisiae mitochondria restores the NADH oxidase activity of complex I-deficient mammalian cells. Proc. Natl. Acad. Sci. USA 95, 9167-9171 (1998)) and complex II (CybL^−/−; B9 cells) (Oostveen, F. G., Au, H. C., Meijer, P. J. & Scheffler, I. E. A Chinese hamster mutant cell line with a defect in the integral membrane protein CII-3 of complex II of the mitochondrial electron transport chain. J. Biol. Chem. 270: 26104-26108 (1995)) as well as the parental cells (B1 cells) (Oostveen, F. G., Au, H. C., Meijer, P. J. & Scheffler, I. E. A Chinese hamster mutant cell line with a defect in the integral membrane protein CII-3 of complex II of the mitochondrial electron transport chain. J. Biol. Chem. 270: 26104-26108 (1995)) were grown in DMEM with 10% FCS, antibiotics, 10 mg/ml glucose and non-essential aminoacids.
as §1

The test system of a further assay is HL-1. Nature of the assay: MTT viability assay (IC50). The following applies: HL-1, ~60% confluency. Type of assay: cell-based, rat.
Source text: as §2, §1

For another assay, the system named is adherent MCF7 cells. Kind of assay: Drug induced cell death in adherent MCF7 cells (FIG. 8). The class given is cell-based, human. The following applies: 5 μM MitoVES, 50 μM α-TOS or 10 μM parthenolide. On the procedure:
(§3) Adherent MCF7 cells and the corresponding mammosphere cells (MS) were cultured and assessed for morphological changes by microscopy (A) and for expression levels of markers as indicators of “sternness” by RT-PCR (B) and flow cytometry (C), including the expression of CD44 and CD24 (D). The adherent MCF7 cells (E) and the MS cells (F) were treated with 5 μM MitoVES, 50 μM α-TOS or 10 μM parthenolide and assessed for their sensitivity to drug induced cell death. […] Adherent MCF7 cells (I) and MS cells (J) were treated for 3 h with α-TOS (50 μM) or MitoVES homologues containing different lengths in the aliphatic side chain (5 μM each, either 11, 7 or 5 carbon chain in length) and the treated cells assessed for production of reactive oxygen species (ROS) by flow cytometry.

For assay [1], the system named is MS cells derived from MCF7 cells. Nature of the assay: Drug induced cell death in mammosphere cells (FIG. 8). The note with it: for sensitivity of MS cells to drug induced cell death: 5 μM MitoVES, 50 μM α-TOS or 10 μM parthenolide. Type of assay: cell-based, human. On the procedure:
as §3

A value given as a limit tells only on which side of the number the result lay.

What is called IC50 is the midpoint of a concentration-inhibition curve. Low readings indicate higher potency, high ones lower potency. With `Cc1c(C)c2c(c(C)c1OC(=O)CCC(=O)O)CC[C@@](C)(CCC[C@H](C)CCC[C@H](C)CCCC(C)C)O2` [α-TOS, α-tocopheryl succinate, reference compound], the IC50 was 33 ± 5 µM with AE-17, > 100 µM with H9c2 and > 100 µM in the assay with HL-1. The “sensitivity of adherent MCF7 cells to drug induced cell death” value with adherent MCF7 cells is given as “sensitive to killing”. Further, the “sensitivity of MS cells to drug induced cell death” value in assay [1] was “resistant”.
In the case of `Cc1c(C)c2c(c(C)c1OC(=O)CCC(=O)[O-])CCC(C)(CCCCCCCCCCC[P+](c1ccccc1)(c1ccccc1)c1ccccc1)O2` (centres unmarked) [MitoVE11S], the IC50 in the assay on AE-17 stood at 3.1 ± 0.7 µM; with H9c2, 54 ± 8 µM; with HL-1, 48 ± 6 µM. In addition, in the assay with adherent MCF7 cells, the “sensitivity of adherent MCF7 cells to drug induced cell death” value is reported as “more so”. In assay [1], the “sensitivity of MS cells to drug induced cell death” value is “very sensitive”. Besides, the “apoptosis of MS cells” value in assay [1] (within 5-6 h after adding the drug) was > 90%.

The values are drawn from patent US8598145B2, “Mitochondrially delivered anti-cancer compounds” (priority 2008, dated 2013).
